{"source": "patent US11826317B2", "about": "“Combination therapy with notch and PD-1 or PD-L1 inhibitors” (Eli Lilly and Company, priority 2016, dated 2023)", "key": {"CT-26 tumors [1]": {"test_system": "CT-26 tumors", "assay": "Gene expression analysis (Taqman) of excised CT-26 tumors", "type": "in vivo, mice", "details": "all genes of Table 4; single-agent groups versus vehicle; result in words", "description": "(§1) For mechanism analysis CT-26 tumors are excised on day 20, 1 h following the last dose of Compound A. A small piece of approximately 30 mg is cut and stored in RNALater for gene expression analysis. The remainder of the tumor is processed for the flow-cytometry analysis.\nFor RNA isolation from the tumor, approximately 30 mg tissue is cut. RNA is extracted by RNeasy Protocol (version January 2002) using RNeasy 96-well Column Plates (Qiagen, Valencia, Calif.; Cat #74182) and QiaVac 96 vacuum manifold at 15 psi vacuum. […] The total RNA concentration is estimated using Nanodrop ND-1000 spectrophotometer by absorbance at 260 nm (Thermo Scietific). […]\nFor Taqman procedure, 100 μL of cDNA is diluted with 200 μL RNase/DNase-free water in 96-Well Clear Optical Reaction Plate (Applied Biosystems, Cat #4306737) and transferred to 2 mL RNase/DNase-free tubes (Ambion, Cat #AM12475). […] Samples are dispensed with Tecan Automated Pipetting Workstation (Tecan US Inc., Durham, N.C.; Model: Freedom Evo-100 or Evo-150), and plates are read in ABI Prism 9700HT SDS plate reader with following protocol settings: 50° C. for 2 minutes, 95° C. for 10 minutes, and 40 cycles at 95° C. for 15 seconds and 60° C. for 1 minute. […] All calculations are done in Microsoft Excel spreadsheet template, and % inhibition is calculated from control values. […]"}, "CT-26 tumors [2]": {"test_system": "CT-26 tumors", "assay": "Flow-cytometry of intra-tumoral immune cell populations in excised CT-26 tumors", "type": "in vivo, mice", "details": "tumors excised day 20, 1 h after last dose of Compound A", "description": "as §1\nTumors are weighed and then homogenized in 5 ml 4° C. complete media (CM; RPMI-1640/10% fetal bovine serum (FBS)) through 100 μm strainers to produce single-cell suspensions. Cells are centrifuged for 5 minutes at 466×g, 4° C.; the pellets are resuspended in fresh CM (0.5-3 ml, depending on pellet volume), and cells are counted using a Vi-Cell XR (Beckman Coulter). An equal number of total cells per tumor (10×10^6) are transferred to 96-well V-bottom microplates (Fisher Scientific). Cells are centrifuged (700×g, 3 min., 4° C.) and resuspended in 100 μl 1 μg/ml Fc block in CM (anti-CD16/32 (clone 2.4G2); Tonbo Biosciences) for 30 minutes on ice. Cells are centrifuged (700×g, 3 minutes, 4° C.) and resuspended in 100 μl of one of several fluochrome-conjugated surface marker antibody cocktails [anti-CD3 (clone 145-2C11), -Ly-6G (clone 1A8), -CD11c (clone HL3), -CD45 (clone 30-F11) (BD Biosciences), anti-CD8 (clone 53-6.7) (Biolegend), -CD11b (clone M1/70), -CD3 (clone 145-2C11), -F4/80 (clone BM8), -CD4 (clone RM4-5), (eBioscience)] containing a fixable viability dye (eBioscience) and incubated for 30 minutes on ice covered from light. Cells are twice washed with 200 μl CM and centrifuged (700×g, 3 min., 4° C.). Following the second wash, cells are fixed, permeabilized, and intracellularly stained for Ki67 (clone SolA15) (eBioscience) using the Foxp3/Transcription Factor Staining Buffer Set (eBioscience), following the manufacturer's instructions with noted modifications. Briefly, cells are fixed in 100 μl/well for 30 min., followed by 100 μl/well permeabilization buffer with or without intracellular stain (depending on the staining panel used) for 30 min. Cells are twice washed with 200 μl 1× permeabilization buffer and centrifuged (700×g, 3 min., 4° C.), followed by resuspension in PBS with 2% FBS. 1×10^6 events, excluding debris, are captured for each sample using a 10-channel LSR II cytometer (BD Biosciences) and analyzed using FlowJo V.10.0.8 software. Data is represented as percent of tumor cells, with noted exceptions where represented as percent of parent population. Post-hoc t-test following ANOVA is used for statistical analysis between vehicle and treatment groups."}, "CT26 cells": {"test_system": "CT26 cells", "assay": "CT26 colorectal tumor growth in BALB/C mice (in-vivo study)", "details": "CT26 s.c. in BALB/C mice", "description": "For in-vivo studies 1×10^6 CT26 cells (ATCC® CRL2639™) a colorectal cancer cell line, in 0.2 mL Hank's Balanced Salt Solution (HBSS) is implanted by subcutaneous injection in the hind leg of 6-8 weeks of age BALB/C female mice (Harlan Laboratories). Mice are fed ad libitum on normal chow. Treatment is initiated on day 6 of tumor implantation with oral administration (gavage) of Compound A in 1% Sodium carboxymethyl cellulose (Na-CMC) in 0.25% Tween® 80, or intraperitoneal injection of mouse anti PD-L1 antibody (10F.9G2, BioXcell Catalogue #: BE0101) in phosphate buffered saline (PBS) or intraperitoneal injection of mouse anti PD-1 (CD279) antibody (Clone: RMP1-14, BioXCell #: BP0146-R) in PBS or their respective vehicle in 0.2 mL volume. Compound A is administered at 8 mg/kg on a Monday, Wednesday and Friday schedule for 2 weeks and 10F.9G2 and RMP1-14 are administered at 250 μg/dose/animal on Monday and Thursday schedule for 2 weeks.\nTumor growth and body weight are monitored over time to evaluate efficacy and signs of toxicity. Bidimensional measurements of tumors are performed twice a week and tumor volumes are calculated based on the following formula: (Tumor Volume)=[(L)×(W2)×(Π/6)] where L is mid-axis length and W is mid-axis width. Tumor volume data are transformed to a log scale to equalize variance across time and treatment groups. The log volume data are analyzed with a two-way repeated measures analysis of variance by time and treatment using the MIXED™ procedures in SAS™ software (version 8.2). The correlation model for the repeated measures is spatial power. Test Groups are: • 1: 1% CMC/0.25% Tween® 80/0.05% Antifoam, Monday-Wednesday-Friday ×2, PO/PBS Monday-Thursday ×2, IP • 2: Compound A, 8 mg/kg, Monday-Wednesday-Friday ×2, PO • 3: Compound B (PD-L1), 250 μg/dose, Monday-Thursday ×2, IP • 4: Compound C (PD-1), 250 μg/dose, Monday-Thursday ×2, IP • 5: Compound A, 8 mg/kg, Monday-Wednesday-Friday ×2, PO/Compound B (PD-L1), 250 μg/dose, Monday-Thursday ×2, IP • 6: Compound A, 8 mg/kg, Monday-Wednesday-Friday ×2, PO/Compound C (PD-1), 250 μg/dose, Monday-Thursday ×2, IP\nTumor growth and body weight are monitored over time to evaluate efficacy and signs of toxicity. Bidimensional measurements of tumors are performed twice a week and tumor volumes are calculated based on the following formula: (Tumor Volume)=[(L)×(W2)×(Π/6)] where L is mid-axis length and W is mid-axis width. Tumor volume data are transformed to a log scale to equalize variance across time and treatment groups. The log volume data are analyzed with a two-way repeated measures analysis of variance by time and treatment using the MIXED™ procedures in SAS™ software (version 8.2). The correlation model for the repeated measures is spatial power. Treated groups are compared to the control group at each time point. The MIXED™ procedure is also used separately for each treatment group to calculate adjusted means and standard errors at each time point. Both analyses account for the autocorrelation within each animal and the loss of data that occurs when animals with large tumors are removed from the study early. […] Antitumor activity is expressed as a tumor volume percentage for treatment versus control (% T/C) and is calculated by comparing tumor volume in the treatment group with vehicle treatment group. Percentage T/C and statistical significance value (p value) for the treatment groups is measured essentially as described above and summarized in Table 2. […]"}}}
{"smiles": "C[C@H](NC(=O)CCC(F)(F)F)C(=O)N[C@@H]1C(=O)N(CCO)c2ncccc2-c2ccccc21", "note": "[Compound A, 4,4,4-trifluoro-N-[(1S)-2-[[(7S)-5-(2-hydroxyethyl)-6-oxo-7H-pyrido[2,3-d][3]benzazepin-7-yl]amino]-1-methyl-2-oxo-ethyl]butanamide]", "values": [{"measurement": "change in the expression of genes examined", "setting": "CT-26 tumors [1]", "value": "No significant change"}, {"measurement": "CD4+/Ki67+ (% of CD4+) Mean % ± SEM", "setting": "CT-26 tumors [2]", "value": "7.6 ± 0.5", "unit": "%"}, {"measurement": "CD8+/Ki67+ (% of CD8+) Mean % ± SEM", "setting": "CT-26 tumors [2]", "value": "23.1 ± 2.0", "unit": "%"}, {"measurement": "CD11b + F4/80+ (% of Tumor) Mean % ± SEM", "setting": "CT-26 tumors [2]", "value": "0.89 ± 0.15", "unit": "%"}, {"measurement": "CD11b + Ly-6G + F4/80− (% of Tumor) Mean % ± SEM", "setting": "CT-26 tumors [2]", "value": "1.12 ± 0.08", "unit": "%"}, {"measurement": "CD11b+ (% of Tumor) Mean % ± SEM", "setting": "CT-26 tumors [2]", "value": "2.9 ± 0.2", "unit": "%"}, {"measurement": "CD11c+ (% of Tumor) Mean % ± SEM", "setting": "CT-26 tumors [2]", "value": "0.42 ± 0.06", "unit": "%"}, {"measurement": "Tumor volume: Geometric Mean", "setting": "CT26 cells; study day 8", "value": 47.96, "unit": "mm^3"}, {"measurement": "Tumor volume: Geometric Mean", "setting": "CT26 cells; study day 10", "value": 88.80, "unit": "mm^3"}, {"measurement": "Tumor volume: Geometric Mean", "setting": "CT26 cells; study day 14", "value": 376.50, "unit": "mm^3"}, {"measurement": "Tumor volume: Geometric Mean", "setting": "CT26 cells; study day 17", "value": 751.13, "unit": "mm^3"}, {"measurement": "Tumor volume: Geometric Mean", "setting": "CT26 cells; study day 20", "value": 1227.40, "unit": "mm^3"}]}
